36 compounds from ChEMBL document CHEMBL4303101, “Identification of inhibitors of SARS-CoV-2 in-vitro cellular toxicity in human (Caco-2) cells using a large scale drug repurposing collection” (2020) can be followed below.

Data set [1] concerns SARS-CoV-2. The conditions noted are these: Homo sapiens; Caco-2; 10 uM.
Data set [2] can be described thus: in vitro. As to conditions: human, Caco-2 cells.
The nature of data set [3]: in vitro. As to conditions: human.
For data set [4], the system named is SARS-CoV-2. The data set can be described thus: microbe, parasite or virus in culture. The conditions noted are these: Severe acute respiratory syndrome coronavirus 2, Caco-2, 48 h.
Data set [5] deals with SARS-CoV-2. The conditions noted are these: caco-2.
The test system of another data set is Caco-2. As to conditions: human, caco-2, 48 h.

What is called inhibition is the change of the read-out against control, counted positive when it falls. With AUROTHIOGLUCOSE, in the data set with SARS-CoV-2 [1], the inhibition is 2.42%.

The compound `CC1=C(CCC(=O)O)c2cc3nc(cc4[nH]c(cc5[nH]c(cc1n2)c(C)c5C(C)O)c(C)c4C(C)O)C(C)=C3CCC(=O)O` (stereo unspecified) [HAEMAPORPHYRIN] returned a CC50 at 48 h in the data set “in vitro [2]” of 160 µM.

On to SODIUM ORTHOVANADATE, for which, in the data set on SARS-CoV-2 [1], the inhibition was determined as 1.6%.

In the case of GADOTERIDOL, the inhibition in the data set on SARS-CoV-2 [1] came out at 2.66%.

Broadly, the IC50 is the concentration needed to halve the response being measured. In the case of `C/C(=N\NC(=S)N1CCC1)c1ccccn1`, the CC50 at 48 h in the data set “in vitro [2]” is under 0.02 µM. Moreover, the selectivity ratio in “in vitro [3]” (Caco-2 cells) stood at 1. Moreover, the IC50 in the data set on SARS-CoV-2 [4] is under 0.02 µM.

NYSTATIN: the inhibition in the data set with SARS-CoV-2 [1] was -4.11%.

In turn, `Nc1nc2c(ncn2[C@@H]2O[C@H](CO)[C@@H](O)[C@H]2O)c(=S)[nH]1` [THIOGUANOSINE] displayed a CC50 at 48 h in “in vitro [2]” of 0.63 µM. Also, the selectivity ratio in the data set “in vitro [3]” (Caco-2 cells) was found to be 1. In the data set with SARS-CoV-2 [4], this compound yielded a 50% inhibitory concentration (IC50) of 0.78 µM.

With `CCCC[C@@]1(C2CCCC2)Cc2cc(OCCCC(=O)O)c(Cl)c(Cl)c2C1=O`, the CC50 at 48 h in the data set “in vitro [2]” was 24.6 µM. In the data set “in vitro [3]” (Caco-2 cells), the selectivity ratio stood at 2. This compound yielded an IC50 in the data set on SARS-CoV-2 [4] of 12.8 µM.

For the compound `Cc1cc(Nc2cc(N3CCN(C)CC3)nc(Sc3ccc(NC(=O)C4CC4)cc3)n2)n[nH]1`, the inhibition in the data set on SARS-CoV-2 [1] was -0.85%.

In the case of `CC(=O)OC[C@]12CCC(C)=C[C@H]1O[C@@H]1[C@H](O)[C@@H](OC(C)=O)[C@@]2(C)[C@@]12CO2`, in the data set with SARS-CoV-2 [1], the inhibition is 35%.

Compound `CCCCCCCCCCCCOCCOCCOCCOCCOCCOCCOCCOCCOCCO` had a CC50 at 48 h in “in vitro [2]” of 10.3 µM. This compound returned a 50% inhibitory concentration (IC50) with SARS-CoV-2 [4] of 0.22 µM.

Compound `CC(C)(C)c1ccc(/C=C/C(=O)Nc2ccc3c(c2)OCCO3)cc1` had a CC50 at 48 h in the data set “in vitro [2]” of 14.2 µM. In addition, the selectivity ratio in the data set “in vitro [3]” (Caco-2 cells) worked out at 1. Further, the IC50 with SARS-CoV-2 [4] worked out at 15 µM.

Regarding ESCIN, in the data set on SARS-CoV-2 [1], the inhibition was -9.26%.

Take AURANOFIN: in the data set on SARS-CoV-2 [1], the inhibition stood at 12.8%.

In “in vitro [2]”, `CCC(CC)COC(=O)[C@H](C)N[P@](=O)(OC[C@H]1O[C@@](C#N)(c2ccc3c(N)ncnn23)[C@H](O)[C@@H]1O)Oc1ccccc1` came in with a CC50 at 48 h of 2580 µM. In addition, the selectivity ratio in “in vitro [3]” (caco-2) amounted to 3400. The compound also showed an IC50 with SARS-CoV-2 [4] of 0.76 µM.

Take `Nc1nccc(-c2c(-c3ccc(F)cc3)ncn2C2CCCCC2)n1`: the CC50 at 48 h in “in vitro [2]” stood at 8.24 µM. The compound also displayed a half-inhibitory concentration (IC50) with SARS-CoV-2 [4] of 19.2 µM.

As to PHENYLMERCURIC ACETATE, the inhibition with SARS-CoV-2 [1] was 9.11%.

In “in vitro [2]”, `FC(F)(F)Oc1ccc2nc(-c3ccc(OCCOCCOc4ccc(-c5nc6ccc(OC(F)(F)F)cc6[nH]5)nc4)cn3)[nH]c2c1` yielded a CC50 at 48 h of 6.58 µM. In addition, the selectivity ratio in “in vitro [3]” (Caco-2 cells) was found to be 35. This compound also registered a half-maximal inhibitory concentration (IC50) in the data set on SARS-CoV-2 [4] of 0.19 µM.

CETRIMONIUM BROMIDE: in the data set with SARS-CoV-2 [1], the inhibition was determined as 55.1%.

In the data set “in vitro [2]”, `Cc1cccc2c1CC[C@H](CN1CCC(c3c(Cl)cccc3Cl)CC1)C[C@@H]2O` had a CC50 at 48 h of 3.67 µM. Also, in “in vitro [3]” (Caco-2 cells), the selectivity ratio worked out at 5. Also, the IC50 in the data set with SARS-CoV-2 [4] came to 0.77 µM.

Take `COc1cc2ncc(-c3ccccc3)nc2cc1OC`: the CC50 at 48 h in the data set “in vitro [2]” was 1.36 µM. The compound also registered a half-maximal inhibitory concentration (IC50) in the data set on SARS-CoV-2 [4] of 0.2 µM.

On to `Cn1cc(-c2ccc3c(c2)CCN3C(=O)Cc2cccc(C(F)(F)F)c2)c2c(N)ncnc21`, for which, in “in vitro [2]”, the CC50 at 48 h was found to be 70.4 µM. Further, the selectivity ratio in “in vitro [3]” (Caco-2 cells) is over 100. Besides, the midpoint of inhibition in the data set on SARS-CoV-2 [4], the IC50, lay at 0.25 µM.

As to TOCOFERSOLAN, the inhibition in the data set with SARS-CoV-2 [1] turned out to be 95.2%.

For the compound CYANOCOBALAMIN, the inhibition with SARS-CoV-2 [1] came to 40.4%.

In the case of ACRIFLAVINE HYDROCHLORIDE, the inhibition in the data set with SARS-CoV-2 [1] came out at 69.4%.

Consider COLISTIMETHATE SODIUM, for which the inhibition in the data set with SARS-CoV-2 [1] is -7.44%.

Consider `C=C(c1ccccc1OCc1cccc(Cl)c1)n1ccnc1` [CROCONAZOLE], for which the CC50 at 48 h in “in vitro [2]” worked out at 33 µM. The selectivity ratio in the data set “in vitro [3]” (Caco-2 cells) is 2. In the data set with SARS-CoV-2 [4], this compound showed an IC50 of 18.9 µM.

In turn, `CCS(=O)(=O)N(Cc1cccnc1)c1cccc(-c2ccc(C#N)cc2)c1` showed a CC50 at 48 h in “in vitro [2]” of 13.4 µM. In the data set “in vitro [3]” (Caco-2 cells), the selectivity ratio stood at 1. In addition, the IC50 with SARS-CoV-2 [4] worked out at 17.1 µM.

Regarding `C/C=C/C[C@@H](C)[C@@H](O)[C@H]1C(=O)N[C@@H](CC)C(=O)N(C)[C@H](C)C(=O)N(CC)[C@@H](C(C)C)C(=O)N[C@@H](C(C)C)C(=O)N(C)[C@@H](CC(C)C)C(=O)N[C@@H](C)C(=O)N[C@H](C)C(=O)N(C)[C@@H](CC(C)C)C(=O)N(C)[C@@H](CC(C)C)C(=O)N(C)[C@@H](C(C)C)C(=O)N1C` [ALISPORIVIR], the CC50 at 48 h in the data set “in vitro [2]” was over 20 µM. In addition, the selectivity ratio in the data set “in vitro [3]” (Caco-2 cells) is over 6. Moreover, the IC50 with SARS-CoV-2 [4] was 3.1 µM.

Turning to THIMEROSAL, in the data set with SARS-CoV-2 [5], the IC50 is 1.69 µM. In addition, the CC50 with Caco-2 was 13.5 µM.

In the data set “in vitro [2]”, `COC(=O)C[C@@](O)(CCC(C)(C)O)C(=O)O[C@@H]1C(OC)=C[C@]23CCCN2CCc2cc4c(cc2[C@@H]13)OCO4` had a CC50 at 48 h of 0.07 µM. This compound also showed an IC50 with SARS-CoV-2 [4] of 19 µM.

With VITAMIN B12, the inhibition in the data set on SARS-CoV-2 [1] was -8.31%.

For the compound `CCOC(=O)c1ncc2[nH]c3ccc(OCc4ccccc4)cc3c2c1COC`, in “in vitro [2]”, the CC50 at 48 h is 0.91 µM. The selectivity ratio in the data set “in vitro [3]” (Caco-2 cells) is 1. Also, half-maximal inhibition in the data set with SARS-CoV-2 [4] (IC50) required 1.34 µM.

In the data set “in vitro [2]”, `CCCCCCCCCCCCCCCCCC[S+](CCC)c1ccccc1C(=O)OCC` (stereo unspecified) displayed a CC50 at 48 h of 0.89 µM. The selectivity ratio in the data set “in vitro [3]” (Caco-2 cells) was 1. Moreover, the 50% inhibitory concentration (IC50) in the data set on SARS-CoV-2 [4] is 0.77 µM.

In the data set “in vitro [2]”, `N=C(Nc1ccc(I)cc1)NC1C2CC3CC(C2)CC1C3` (stereo unspecified) registered a CC50 at 48 h of 11.5 µM. Also, the selectivity ratio in “in vitro [3]” (Caco-2 cells) is 2. Besides, in the data set with SARS-CoV-2 [4], the IC50 came to 5.96 µM.

In “in vitro [2]”, `Cc1nn(C)c2nc(NNC(=O)Nc3cc(Cl)nc(Cl)c3)cc(C(C)C)c12` displayed a CC50 at 48 h of 16.4 µM. The selectivity ratio in “in vitro [3]” (Caco-2 cells) was determined as 3. The compound also showed an IC50 in the data set with SARS-CoV-2 [4] of 5.97 µM.
